Read-outs that look alike come from different tables or passages of the source. Marks after values point to notes of the source that are not given here.
Experiments:
[1] = in vivo; cited from earlier work
[2] = tested on: mantle cell lymphoma (MCL) Mino cell line; conditions: read-out: IC50, inhibition of growth; cited from earlier work
B-NHL cell lines [3] = conditions: cited from earlier work
[4] = tested on: follicular lymphoma (FL) DOHH-2 cell line; conditions: read-out: IC50, inhibition of growth; cited from earlier work
[5] = comparison of atrial fibrillation adverse events between BTK inhibitors; format: in vivo, human; conditions: N=106
BTK [6] = target: T1, BTK (Homo sapiens, UniProt Q06187); assay: Phase 1/1b clinical trial, pharmacodynamics (BTK occupancy); format: in vivo; parameters: endogenous in cells
T1 sequence (Q06187 whole entry): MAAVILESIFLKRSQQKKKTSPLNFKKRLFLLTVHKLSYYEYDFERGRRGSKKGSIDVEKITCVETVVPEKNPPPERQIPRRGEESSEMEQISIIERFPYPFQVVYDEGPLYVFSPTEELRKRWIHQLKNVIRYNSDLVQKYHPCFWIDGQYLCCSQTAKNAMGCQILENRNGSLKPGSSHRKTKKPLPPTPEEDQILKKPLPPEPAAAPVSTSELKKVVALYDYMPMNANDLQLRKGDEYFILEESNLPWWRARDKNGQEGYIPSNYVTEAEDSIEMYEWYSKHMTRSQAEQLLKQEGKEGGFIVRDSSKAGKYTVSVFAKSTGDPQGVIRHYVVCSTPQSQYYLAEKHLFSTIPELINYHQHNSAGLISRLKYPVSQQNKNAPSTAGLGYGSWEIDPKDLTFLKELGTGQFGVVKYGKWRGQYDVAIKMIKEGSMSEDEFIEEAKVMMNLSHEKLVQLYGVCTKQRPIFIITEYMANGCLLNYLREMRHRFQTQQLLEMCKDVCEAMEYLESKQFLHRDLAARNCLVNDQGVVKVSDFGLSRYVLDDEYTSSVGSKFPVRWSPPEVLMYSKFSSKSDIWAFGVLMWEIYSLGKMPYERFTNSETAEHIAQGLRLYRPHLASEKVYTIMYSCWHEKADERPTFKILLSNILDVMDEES

[7] = Phase 1/1b clinical trial, safety; conditions: for treatment discontinuation: Death: CLL, N = 20, death due to SARS-CoV-2 infection
DLBCL SU-DHL-6 cell line = conditions: read-out: IC50, inhibition of growth; cited from earlier work
B-NHL cell lines [8] = conditions: cited from earlier work; remark: listed apart in the source
BTK [9] = target: T1, BTK; conditions: read-out: kinase inhibition IC50 against BTK; cited from earlier work
EGFR = EGFR (Homo sapiens, UniProt P00533); conditions: cited from earlier work
EGFR, sequence (P00533 25-1210, species assumed): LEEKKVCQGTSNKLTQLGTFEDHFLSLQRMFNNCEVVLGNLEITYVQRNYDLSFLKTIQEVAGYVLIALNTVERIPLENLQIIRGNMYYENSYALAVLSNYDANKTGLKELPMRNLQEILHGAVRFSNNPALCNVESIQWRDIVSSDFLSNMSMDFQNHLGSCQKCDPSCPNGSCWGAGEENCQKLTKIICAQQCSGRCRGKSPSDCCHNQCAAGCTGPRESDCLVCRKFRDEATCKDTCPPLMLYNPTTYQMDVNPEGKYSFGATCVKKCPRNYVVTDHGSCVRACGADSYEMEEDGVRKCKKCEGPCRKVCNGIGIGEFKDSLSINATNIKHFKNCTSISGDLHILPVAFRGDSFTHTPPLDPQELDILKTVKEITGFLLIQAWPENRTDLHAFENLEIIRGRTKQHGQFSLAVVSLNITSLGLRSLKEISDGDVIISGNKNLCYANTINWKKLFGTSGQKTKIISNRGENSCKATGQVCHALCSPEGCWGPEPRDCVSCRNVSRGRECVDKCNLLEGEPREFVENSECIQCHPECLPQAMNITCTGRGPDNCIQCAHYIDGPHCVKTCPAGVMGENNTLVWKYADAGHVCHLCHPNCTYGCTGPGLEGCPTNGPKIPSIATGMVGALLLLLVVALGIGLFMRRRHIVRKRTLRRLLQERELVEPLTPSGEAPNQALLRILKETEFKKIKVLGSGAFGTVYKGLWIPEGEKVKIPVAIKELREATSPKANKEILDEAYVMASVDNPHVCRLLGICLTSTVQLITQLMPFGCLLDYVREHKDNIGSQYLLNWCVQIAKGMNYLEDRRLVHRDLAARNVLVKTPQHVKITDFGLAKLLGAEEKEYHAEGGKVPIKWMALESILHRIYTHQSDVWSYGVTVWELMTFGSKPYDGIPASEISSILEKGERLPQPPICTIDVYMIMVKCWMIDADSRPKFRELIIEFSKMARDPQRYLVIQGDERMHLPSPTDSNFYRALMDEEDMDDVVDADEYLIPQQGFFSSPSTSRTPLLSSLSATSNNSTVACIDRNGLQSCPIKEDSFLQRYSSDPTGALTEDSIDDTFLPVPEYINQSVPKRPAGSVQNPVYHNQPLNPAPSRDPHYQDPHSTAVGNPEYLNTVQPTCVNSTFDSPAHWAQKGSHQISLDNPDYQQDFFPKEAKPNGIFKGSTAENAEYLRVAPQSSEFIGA

BTK [10] = target: T2, BTK (Mus musculus, UniProt P35991); conditions: mice, single dose of TG-1701 at 12.5 mg/kg; cited from earlier work
T2 construct: from tissue; host or cells: mouse spleen
T2 sequence (P35991 whole entry): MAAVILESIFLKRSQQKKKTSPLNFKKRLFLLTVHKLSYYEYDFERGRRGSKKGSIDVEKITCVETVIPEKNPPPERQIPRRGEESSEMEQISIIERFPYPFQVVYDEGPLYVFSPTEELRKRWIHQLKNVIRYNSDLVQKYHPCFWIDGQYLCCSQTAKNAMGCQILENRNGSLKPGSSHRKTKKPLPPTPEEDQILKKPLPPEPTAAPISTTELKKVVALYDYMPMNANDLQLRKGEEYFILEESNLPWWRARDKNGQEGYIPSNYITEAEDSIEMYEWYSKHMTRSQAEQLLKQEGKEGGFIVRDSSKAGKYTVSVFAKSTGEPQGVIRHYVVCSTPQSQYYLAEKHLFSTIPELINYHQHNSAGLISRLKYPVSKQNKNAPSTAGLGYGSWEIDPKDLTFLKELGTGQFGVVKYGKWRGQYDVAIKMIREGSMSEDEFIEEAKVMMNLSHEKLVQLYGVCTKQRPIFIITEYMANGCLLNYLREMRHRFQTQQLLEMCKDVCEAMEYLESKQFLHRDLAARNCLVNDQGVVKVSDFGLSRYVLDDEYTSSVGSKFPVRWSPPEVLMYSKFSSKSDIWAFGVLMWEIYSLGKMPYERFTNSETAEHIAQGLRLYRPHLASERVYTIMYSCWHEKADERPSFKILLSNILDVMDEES

JEKO cells = conditions: cited from earlier work
[11] = human, in vivo
B-cell malignancies = assay: Phase 1/1b clinical trial, efficacy (response)
Protocol: All patients were treated until disease progression, unacceptable toxicity, or investigator/patient decision to withdraw.
All patients were treated until disease progression, unacceptable toxicity, or investigator/patient decision to withdraw study consent.
Evaluable patients had at least one response assessment.

[12] = Phase 1/1b clinical trial, pharmacokinetics; format: in vivo, human; conditions: patients
[13] = tested on: SU-DHL-6 (GCB-DLBCL), Mino (MCL), and OCI-Ly10 (ABC-DLBCL) xenograft models; conditions: SU-DHL-6, Mino, OCI-Ly10 xenografts; cited from earlier work
[14] = tested on: IgM-activated BCR pathway; conditions: DOHH-2 cells; cited from earlier work
[15] = ibrutinib n=263, acalabrutinib n=266; cited from earlier work
[16] = tested on: relapsed and refractory hematologic malignancies; conditions: cited from earlier work
CD20 antigen = target: T3, CD20 antigen (Homo sapiens, UniProt P11836); conditions: cited from earlier work
T3 sequence (P11836 1-297): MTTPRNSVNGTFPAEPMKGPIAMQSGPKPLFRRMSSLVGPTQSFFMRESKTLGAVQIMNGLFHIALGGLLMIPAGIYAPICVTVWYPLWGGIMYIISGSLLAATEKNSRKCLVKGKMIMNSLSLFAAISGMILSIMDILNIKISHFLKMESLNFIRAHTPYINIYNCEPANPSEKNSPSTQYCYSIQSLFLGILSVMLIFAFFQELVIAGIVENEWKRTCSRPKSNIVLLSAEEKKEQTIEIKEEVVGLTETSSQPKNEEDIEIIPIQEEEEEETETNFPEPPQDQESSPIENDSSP

[17] = monotherapy 200 mg, CLL cohort, N = 20
[18] = monotherapy 200 mg, MCL cohort, N = 18
[19] = monotherapy 200 mg, WM cohort, N = 19
[20] = monotherapy dose escalation 100-400 mg, N = 23
[21] = patients with relapsed or refractory hematologic malignancies

Molecule: CC[C@H](Nc1ncnc2[nH]cnc12)c1nc2cccc(F)c2c(=O)n1-c1ccccc1 [Idelalisib]
- immune mediated colitis, grade 3 [1]: ≥ 5%
- pneumonitis, grade 3 [1]: ≥ 4%
- transaminitis, grade 3 [1]: ≥ 8%

Molecule: CC#CC(=O)N1CC[C@@H](n2cc(-c3ccc(Oc4c(F)cccc4F)cc3)c3c(N)n[nH]c(=O)c32)C1 [TG-1701, (R)-4-amino-1-(1-(but-2-ynoyl)pyrrolidin-3-yl)-3-(4-(2,6-difluorophenoxy)phenyl)-1,6-dihydro-7H-pyrrolo[2,3-d]pyridazin-7-one]
- IC50 [2]: 449 nM
- ADCP activity of rituximab in the presence of the BTK inhibitor (B-NHL cell lines [3]): conserved to a greater extent
- ADCP activity of ublituximab in combination with the BTK inhibitor (B-NHL cell lines [3]; increasing concentrations): conserved at all dose levels tested
- IC50 [4]: 369 nM
- % incidence of any grade Afib [5]: 3.8%
- % incidence of atrial fibrillation (Afib), Grade 3 or greater [5]: 1.9%
- BTK occupancy (BTK [6]; 100 mg QD): full BTK occupancy
- saturation of the BTK (BTK [6]; all dose levels studied): ~100%
- receptor occupancy at 100 mg (BTK [6]; human, 100 mg QD): ≥ 99%
- treatment discontinuation: Death ([7]; dose-expansion 200 mg): 1^‡ N(%)
- treatment discontinuation: Death ([7]; dose-expansion 300 mg): 2^‡ N(%)
- IC50 (DLBCL SU-DHL-6 cell line): 313 nM
- FcγR-driven ADCC and ADCP activity of anti-CD20 antibodies (e.g., ublituximab) (B-NHL cell lines [8]): does not impair
- ADCC activity of ublituximab in the presence of the BTK inhibitor (B-NHL cell lines [8]; compared to monotherapy ADCC activity of ublituximab, across cell lines): not significantly different
- IC50 (BTK [9]): 3 nM
- IC50 (EGFR): 270 nM
- BTK occupancy in the spleen (BTK [10]): completely occupied
- CXCL12-dependent migration (JEKO cells): blocked
- IgM-dependent CD69 expression (JEKO cells): blocked
- adhesion of JEKO cells to VCAM-1 (JEKO cells): blocked
- G≥3 neutropenia [11]: 8%
- changes between pre- and on-treatment diastolic blood pressure nor QTc [11]: No significant changes
- patients with dose reduction due to treatment-related adverse events [11]: Four
- treatment discontinuations due to adverse events [11]: no treatment discontinuations due to adverse events
- ventricular tachyarrhythmia [11]: No cases
- hematologic variables in patients with anemia and thrombocytopenia at baseline (B-cell malignancies; CLL 200-mg and 300-mg cohorts): sustained improvement
- lymphocytosis resolution to normal or less than 50% of baseline (B-cell malignancies; CLL monotherapy patients): 57.1%
- ORR (B-cell malignancies; CLL patients evaluable for response, Example 2): 95.6%
- median duration of response (B-cell malignancies; CLL patients, Example 2): has not been reached
- treatment discontinuation: Progression by iwCLL criteria (B-cell malignancies; CLL, dose-escalation 100-400 mg, N = 6): 1 N(%)
- complete responses (CR) confirmed (B-cell malignancies; TG-1701 monotherapy): No complete responses
- ORR (B-cell malignancies; [17]): 95%
- Stable disease (B-cell malignancies; [17]): 1 (5) N (%)
- Partial response (B-cell malignancies; monotherapy 200 mg, CLL cohort, N = 20, includes PR and PR-L): 19 (95)^b N (%)
- ORR (B-cell malignancies; [18]): 50%
- Partial response (B-cell malignancies; [18]): 9 (50) N (%)
- Progressive disease (B-cell malignancies; [18]): 3 (17) N (%)
- Stable disease (B-cell malignancies; [18]): 6 (33) N (%)
- Minor response (B-cell malignancies; [19]): 6 (32) N (%)
- ORR (B-cell malignancies; [19]): 95%
- Partial response (B-cell malignancies; [19]): 12 (63) N (%)
- Progressive disease (B-cell malignancies; [19]): 1 (5) N (%)
- Minor response (B-cell malignancies; [20]): 1 (4) N (%)
- ORR (B-cell malignancies; [20]): 52%
- Partial response (B-cell malignancies; [20]): 11 (48) N (%)
- Progressive disease (B-cell malignancies; [20]): 3 (13) N (%)
- Stable disease (B-cell malignancies; [20]): 8 (35) N (%)
- kinetics, dose proportionality of exposure [12]: Linear kinetics
- anti-tumor efficacy [13]: potent anti-tumor activity equivalent to or greater than ibrutinib
- IgM-activated BCR pathway: phosphorylation of BTK, PLCy2, and ERK1/2 [14]: inhibited

Molecule: CC#CC(=O)N1CCC[C@H]1c1nc(-c2ccc(C(=O)Nc3ccccn3)cc2)c2c(N)nccn12 [acalabrutinib]
- % incidence of any grade Afib [15]: 9%
- % incidence of atrial fibrillation (Afib), Grade 3 or greater [15]: 4.5%

Molecule: CC(C)Oc1ccc(-c2nn([C@@H](C)c3oc4ccc(F)cc4c(=O)c3-c3cccc(F)c3)c3ncnc(N)c23)cc1F [umbralisib, (S)-2-(1-(4-amino-3-(3-fluoro-4-isopropoxyphenyl)-1H-pyrazolo[3,4-d]pyrimidin-1-yl)ethyl)-6-fluoro-3-(3-fluorophenyl)-4H-chromen-4-one]
- doses with signs of clinical activity ([16]; in vivo): ≥ 800 mg each day
- hepatic toxicity [16, 21]: no reported hepatic toxicity
- tolerability [16, 21]: well-tolerated
- patients with dose reduction of umbralisib due to G3-4 ALT elevation ([7]; combination arm, dose escalation): 3 patients

B1: Ublituximab: chimeric monoclonal antibody targeting a unique epitope on the CD20 antigen, glycoengineered for enhanced affinity for Fcγ RIIIa receptors (antibody, V domains shown)
VH: QAYLQQSGAELVRPGASVKMSCKASGYTFTSYNMHWVKQTPRQGLEWIGGIYPGNGDTSYNQKFKGKATLTVGKSSSTAYMQLSSLTSEDSAVYFCARYDYNYAMDYWGQGTSVTVSS
VL: QIVLSQSPAILSASPGEKVTMTCRASSSVSYMHWYQQKPGSSPKPWIYATSNLASGVPARFSGSGSGTSYSFTISRVEAEDAATYYCQQWTFNPPTFGGGTRLEIK
modifications: Ublituximab Variable heavy chain; Ublituximab Variable light chain
- ADCC activity compared with rituximab and ofatumab (CD20 antigen): greater

From patent US20220143026A1, “TRIPLE COMBINATION TO TREAT B-CELL MALIGNANCIES” (TG Therapeutics, Inc., priority 2020, published 2022)
